This is an account of results in patent US12441689B2 (EpiVario, Inc., priority 2019, dated 2025).

human ACSS2 protein, sequence (Q9NR19 whole entry): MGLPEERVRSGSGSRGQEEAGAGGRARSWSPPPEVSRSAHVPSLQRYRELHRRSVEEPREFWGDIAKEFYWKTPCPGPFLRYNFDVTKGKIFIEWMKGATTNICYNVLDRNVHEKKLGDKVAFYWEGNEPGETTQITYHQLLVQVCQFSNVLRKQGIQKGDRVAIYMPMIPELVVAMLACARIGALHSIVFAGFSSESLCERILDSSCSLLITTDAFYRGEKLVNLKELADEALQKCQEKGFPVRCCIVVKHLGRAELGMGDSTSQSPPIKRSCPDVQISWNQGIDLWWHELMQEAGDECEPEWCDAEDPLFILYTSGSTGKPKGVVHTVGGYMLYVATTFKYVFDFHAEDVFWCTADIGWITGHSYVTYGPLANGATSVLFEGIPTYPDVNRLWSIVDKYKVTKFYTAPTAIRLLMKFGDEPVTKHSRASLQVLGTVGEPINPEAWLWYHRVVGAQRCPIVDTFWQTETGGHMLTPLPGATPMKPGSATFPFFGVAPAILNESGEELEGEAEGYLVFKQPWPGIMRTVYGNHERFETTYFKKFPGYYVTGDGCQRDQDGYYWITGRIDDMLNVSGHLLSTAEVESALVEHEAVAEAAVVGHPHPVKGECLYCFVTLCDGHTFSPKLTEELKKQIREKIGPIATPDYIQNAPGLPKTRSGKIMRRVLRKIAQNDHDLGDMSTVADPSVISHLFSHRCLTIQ

This experiment has as its target human ACSS2 protein (Homo sapiens (Human), UniProt Q9NR19). The experiment is described as follows: ACSS2 Cell-Free Activity Assay (Cell-Free IC50). The conditions noted are these: 10 nM human ACSS2 protein, 90 minutes at 37 C, pyrophosphatase-coupled, Biomol Green absorbance at 620 nm; read-out: ACSS2 Biochemical IC50. An excerpt:
ACSS2 Cell-Free Activity Assay (Cell-Free IC50)
A word on the IC50: it is the point on the concentration scale where inhibition reaches its midpoint. With `Cc1nc(-c2ccc(OC(F)F)cc2)ncc1C(=O)Nc1cccc(C(C)(F)F)c1` [Compound 144, N-[3-(1,1-difluoroethyl)phenyl]-2-[4-(difluoromethoxy)phenyl]-4-methyl-pyrimidine-5-carboxamide], the IC50 was greater than 100 nM.
The figure for `Cc1oc(-c2ccc(OC(F)F)cc2)nc1C(=O)Nc1cccc(C(C)(F)F)c1` [Compound 113, N-(3-(1,1-difluoroethyl)phenyl)-2-(4-(difluoromethoxy)phenyl)-5-methyloxazole-4-carboxamide] is greater than 100 nM.
The same measure for `Cc1nn(-c2ccc(OC(F)F)cc2)c(C(F)(F)F)c1C(=O)Nc1cccc(C(C)(F)F)c1` [Compound 192, N-(3-(1,1-difluoroethyl)phenyl)-1-(4-(difluoromethoxy)phenyl)-3-methyl-5-(trifluoromethyl)-1H-pyrazole-4-carboxamide]: 1 to 100 nM.
The figure for `Cc1nn(-c2ccc(OC(F)F)c(-c3cccnc3)c2)c(OC(=O)N2CCN(C(C)(C)CO)CC2)c1C(=O)Nc1cccc(C(C)(F)F)c1` [Compound 183, 4-((3-(1,1-difluoroethyl)phenyl)carbamoyl)-1-(4-(difluoromethoxy)-3-(pyridin-3-yl)phenyl)-3-methyl-1H-pyrazol-5-yl 4-(1-hydroxy-2-methylpropan-2-yl)piperazine-1-carboxylate] is greater than 100 nM; for `CCC(F)(F)c1cccc(NC(=O)c2c(C)[nH]c3ccc(OC)cc3c2=O)c1` [Compound 272, N-(3-(1,1-difluoropropyl)phenyl)-6-methoxy-2-methyl-4-oxo-1,4-dihydroquinoline-3-carboxamide] it is 1 to 100 nM; for `CCC(F)(F)c1cccc(NC(=O)c2nc(-c3ccc(OC(F)F)cc3)[nH]c2C)c1` [Compound 215, 2-(4-(difluoromethoxy)phenyl)-N-(3-(1,1-difluoropropyl)phenyl)-5-methyl-1H-imidazole-4-carboxamide] it is greater than 100 nM.
`Cc1nn(-c2ccc(OC(F)F)c(-c3ccccn3)c2)cc1C(=O)Nc1cccc(C(C)(F)F)c1` [Compound 175, N-[3-(1,1-difluoroethyl)phenyl]-1-[4-(difluoromethoxy)-3-(2-pyridyl)phenyl]-3-methyl-pyrazole-4-carboxamide]: the IC50 was 1 to 100 nM.
The same measure for `COc1c(Cc2ccccc2)cc(N2N=C(C)C(C(=O)Nc3cccc(C(C)(F)F)c3)C2=O)cc1-c1ccccc1` (stereo not shown) [Compound 122, 1-(5-benzyl-6-methoxy-[1,1′-biphenyl]-3-yl)-N-(3-(1,1-difluoroethyl)phenyl)-3-methyl-5-oxo-4,5-dihydro-1H-pyrazole-4-carboxamide]: less than 1 nM; for `CCC(F)(F)c1cccc(NC(=O)c2nc(-c3ccc(OC(F)F)c(-c4ccccc4)c3)cnc2C)c1` [Compound 117, 6-[4-(difluoromethoxy)-3-phenyl-phenyl]-N-[3-(1,1-difluoropropyl)phenyl]-3-methyl-pyrazine-2-carboxamide]: greater than 100 nM.
`Cc1nc(-c2ccc(OC(F)F)c(-c3ccccn3)c2)ncc1C(=O)Nc1cccc(C(C)(F)F)c1` [Compound 120, N-(3-(1,1-difluoroethyl)phenyl)-2-(4-(difluoromethoxy)-3-(pyridin-2-yl)phenyl)-4-methylpyrimidine-5-carboxamide]: the IC50 is greater than 100 nM.
